This is an account of results in paper PMC10096344 (Molecules, 2023).

SMILES strings stand for the structures.

Experiment [1] relates to P. aeruginosa (ATCC27853) biofilm. The experiment is described as follows: Bacterial biofilm formation (FITC staining, crystal violet staining). The note with it: with 10 μg/mL LP4C. The experiment is classed as cell-based, Pseudomonas aeruginosa. The method, then: The bacterial biofilm growth and measurement was performed according to our previously reported method. Briefly, P. aeruginosa (ATCC27853) was cultured in the tube with nutrient broth containing 2% (w/v) glucose, shaken at 220 rpm for 12 h at 37 °C. The suspension was diluted to 1 × 10^6 CFU/mL and added to 96-well plates, the bacteria was cultured for 24 h at 37 °C for biofilm growth and the planktonic bacterial of each well was removed by PBS rinsing three times. To observe the biofilm formation, the fluorescein isothiocyanate (FITC) was added into the plates and incubated for 2 h at 37 °C; the labeled biofilm was then washed by PBS and visualized under the fluorescence microscopy (Olympus CKX53, Tokyo, Japan). The measurement of biofilm was performed according to the following procedure: the mature biofilm was fixed with 150 μL methanol and left to air dry, then stained with 150 μL of 1% (w/v) crystal violet solution for 15 min at room temperature. The plate was rinsed with PBS three times and 150 μL of glacial acetic acid was added to each well; the optical density was measured at 630 nm optical density using a microplate reader (Bio-Tek ELX800, Berten, USA).

Experiment [2] has as its system P. aeruginosa PAO1 strain. On the set-up: method as in PMID 21852522. The note with it: cited from earlier work.
The test system of experiment [3] is P. aeruginosa (ATCC27853). As to the kind of experiment: Anti-bacterial activity, inhibition zone diameter on agar. It is filed as cell-based, Pseudomonas aeruginosa. The note with it: for growth inhibition / bactericidal activity (inhibition zone): reference antibiotic 10 μg/mL. How it is done: P. aeruginosa (ATCC27853) was cultured in 3 mL LB culture medium, shaken at 220 rpm for 12 h at 37 °C and diluted to 1 × 10^6 CFU/mL. The culture disk was coated with 1% agar, and 100 μL bacterial suspension was added to the agar in the disk evenly. […] LP4C or reference antibiotics were then added in each hole. The disk was cultured for 12–16 h at 37 °C; the result was then observed and the inhibition zone diameter was measured.

The mark [4] stands for this setting: supplementation 1, 10 and 100 μM.

For the compound `O=c1cc[nH]c(=O)[nH]1` [uracil, reference compound], the “reversal of biofilm formation impaired by LP4C” value (from here on “reversal”) in experiment [1] (supplementation 10 and 100 μM) is “could reverse the biofilm formation ability impaired by 10 μg/mL LP4C”.

For `O=c1ccn([C@@H]2O[C@H](CO[P@@](=O)(O)O[P@@](=O)(O)OP(=O)(O)O)[C@@H](O)[C@H]2O)c(=O)[nH]1` (stereo in doubt) [UTP, uridine triphosphate, reference compound], the “reversal” value in experiment [1] (setting [4]) is listed as “could reverse the biofilm formation ability impaired by 10 μg/mL LP4C”.

Take `CC(C)=CC[C@@H](O)C1=CC(=O)c2c(O)ccc(O)c2C1=O` [shikonin]: the “concentration that inhibits biofilm formation” value in experiment [2] was 200 µM.

`C[C@@H](O)[C@H]1C(=O)N2C(C(=O)O)=C(SCCN=CN)C[C@H]12` [imipenem]: the zone of inhibition (commonly the size of the clear area around the sample on an inoculated plate) at 10 µg/mL in experiment [3] (Pseudomonas aeruginosa, ATCC27853, 10 μg/mL, value printed in Figure 1A) came to 29.4 mm. For the same compound, in experiment [3], the “growth inhibition / bactericidal activity (inhibition zone)” value was “could inhibit the growth of P. aeruginosa obviously”.

As for `O=c1ccn([C@@H]2O[C@H](COP(=O)(O)O)[C@@H](O)[C@H]2O)c(=O)[nH]1` [UMP, uridine monophosphate, reference compound], the “reversal” value in experiment [1] (setting [4]) was “could reverse the biofilm formation ability impaired by 10 μg/mL LP4C”.

`CC(C)(O/N=C(\C(=O)N[C@@H]1C(=O)N2C(C(=O)[O-])=C(C[n+]3ccccc3)CS[C@H]12)c1csc(N)n1)C(=O)O` [ceftazidime]: the “growth inhibition / bactericidal activity (inhibition zone)” value in experiment [3] is reported as “no bactericidal activity”.
